# What was measured:
# in vivo = settings: CD1, mouse, plasma, ip
# [1] = test system: anaplastic large cell lymphoma with NPM-ALK fusion protein cell lines; design: method as in PMID 11532349; settings: cited from earlier work
# [2] = test system: Hodgkin lymphoma cell lines; design: method as in PMID 11953894; settings: cited from earlier work
# [3] = test system: multiple myeloma cell line; settings: cited from earlier work
# [4] = test system: refractory/relapsed myeloma; settings: patients with refractory/relapsed myeloma; cited from earlier work
SMILES,AUC(0-t) (in vivo; 12 mg/kg/d) [µg·h/mL],AUC(0-t) (in vivo; 12 mg/kg/day) [µg·h/mL],half-life (in vivo; 12 mg/kg/day) [min],effect in anaplastic large cell lymphoma cell lines [1],effect in Hodgkin lymphoma cell lines [2],in vitro antiproliferative effect on a multiple myeloma cell line [3],response in phase II trial [4]
COc1cc([C@@H]2c3cc4c(cc3[C@@H](O[C@@H]3O[C@@H]5CO[C@@H](C)O[C@H]5[C@H](O)[C@H]3O)[C@H]3COC(=O)[C@H]23)OCO4)cc(OC)c1O [etoposide],17.9,20,14.4,–,–,–,–
Cc1ccc(NC(=O)c2ccc(CN3CCN(C)CC3)cc2)cc1Nc1nccc(-c2cccnc2)n1 [imatinib],–,–,–,minimal effect,minimal effect,antiproliferative effect,no response

# Source: publication PMC2180168 (BMC Pharmacology, 2007)
